Values after ≈ are worked out from the molar mass of the structure shown. Read-outs that look alike come from different tables or passages of the source.
Legend:
[1] = system: T24 cells (human urothelial carcinoma cell line); experiment: MTT cell viability, free anti-cancer drugs, IC50 determination in T24 cells; format: cell-based
Description: (§1) In an embodiment, the present disclosure used a human urothelial carcinoma cell line, T24 (ATCC, U.S.A.) as a cancer cell line to model the urothelial carcinoma and human umbilical vein endothelial cells, HUVEC, (ATCC, U.S.A.) as a control, non-cancerous cell line. The T24 cell line and HUVEC cells were cultured in RPMI-1640 and EGM™-2 medium, respectively, with (10% fetal bovine serum (FBS), 1 mM L-glutamine and 1% penicillin/streptomyocin), Cells were maintained at 37° C. in a humidified 5% CO2 atmosphere.
(§2) In an embodiment, in vitro efficacy of anti-cancer drugs against T24 cells and HUVEC cells-IC50 determination. The cytotoxicity of paclitaxel, epirubicin, doxorubicin and gemcitabine was evaluated by determining the viability of T24 and HUVEC cells after exposure to medium containing the free drug at a range of concentrations from 0.01 to 2000 ng/ml. Free drugs in medium were prepared by first dissolving the anticancer drugs in DMSO (50 mg/ml) and this solution was then diluted in culture medium to achieve the desired concentration. A standard MTT cell proliferation assay (CellTiter 96® Aqueous One Solution Cell Proliferation Assay) was used to test cell viability and was performed on both cell lines to determine the half maximal inhibitory concentration (1050) of each drug. 5000 cells per well were seeded in a 96-well plate with 100 μl medium for T24 and HUVEC cells. After incubation for 24 h, the medium in each well was aspirated off and the cells were exposed to 100 μl of fresh medium containing the drugs at various concentrations for 4 h and 72 h. The cells after 4 h treatment were further cultured for 72 h in fresh (drug-free) medium. After that, the culture medium in each well was replaced by 100 μl of medium and 20 μl of CellTiter 96® AQueous One Solution Reagent, followed by 4 h incubation at 37° C. A latex rubber extract was used as negative control for cell death; while cell culture medium was used as positive control. Cell viability was quantified by UV-spectroscopy, reading the formazan absorbance at 490 nm in a microplate reader (SpectraMax i3, Molecular Devices, USA). Each sample formulation and control was tested using 12 replicates.
(§3) In an embodiment, the 1050 was determined from the fitting of the curve of cell viability, measured by MTT and the drug concentration. The fitting was performed using GraphPad software (GraphPad Prism 6.00 software, San Diego, USA).
(§4) In an embodiment, the effect of the anti-cancer drugs (IC50) when in contact with T24 and HUVEC cells was investigated by a cell viability test, namely the MTT assay. From this, the IC50 was calculated for each of the four drugs in each of the two cell lines. In this case, IC50 is a measure of the concentration needed to inhibit cell survival, and is routinely used to specify the in vitro potency of a drug (Sebaugh, 2011). The T24 cell line was chosen as a muscle invasive urothelial cancer and the HUVEC cells were used as non-cancerous control cells. The cytotoxicity evaluation was carried out either after 4 h or 72 h of exposure of the cells to the free drugs at different concentrations (FIGS. 5 A and B). […] In FIGS. 5 (A and B) it is possible to see, for both cell types the trend of concentration-dependent cytotoxicity. These are similar, in all cases and as it would be expected the 72 h exposure present a higher killing efficacy. Comparing the results between the two cells it is possible to conclude that the cancer cells are much more sensitive to the anti-cancer drugs compared with the HUVEC cells.

[2] = system: HUVEC cells (human umbilical vein endothelial cells); experiment: MTT cell viability, free anti-cancer drugs, IC50 determination in HUVEC cells; format: cell-based
Description: as §1, §2, §3, §4

[3] = Quantity of drug impregnated in stents by scCO2 (UV-spectroscopy after degradation in AUS); format: physicochemical; conditions: for Quantity of drug impregnated by scCO2: 90 min, 100 bar, 40° C.; for increase in the impregnation yield when ethanol was used as a co-solvent: DrugEtOH versus pure scCO2; for % loaded: amount of drug impregnated by scCO2 in BUS
Description: In an embodiment, a supercritical CO2 impregnation of anti-cancer drugs was performed, in the biodegradable ureteral stents (BUS) of the present disclosure. The were biodegradable ureteral stents prepared were placed in high-pressure vessel with anti-cancer drugs (10 mg) according to FIG. 2. The anti-cancer drugs were impregnated in the stents with and without the presence of a co-solvent. The scCO2 impregnation conditions used were 100 bar at 40° C. and 90 min. Carbon dioxide was liquefied and pumped to the desired pressure using a membrane pump (MCPV-71, Haskel, Germany). Impregnation took place in batch mode for 90 min followed by fast depressurization of the system. When a co-solvent was employed, 10% (v/v) ethanol was used. A commercial non-degradable ureteral stent (Biosoft® duo, Porges, Coloplast) was impregnated with same drugs at the same conditions with co-solvent, to be used as a control. To enhance the mechanical properties of the stent a PCL coating was applied. To evaluate the effect of coating on the release of the drugs the condition BUS+Co-Solvent was prepared twice and one of this batches was coated with PCL resin.
The anticancer drugs impregnation yield (I) was calculated from Eq. (1): I(%)=mdrug/mstent+mdrug×100 Eq. (1) where mstent is the polymer mass at the beginning of the process and the mdrug is the mass of the respective anticancer drug released after complete degradation of the stents in AUS. Anti-cancer drugs concentration was calculated from a calibration curve prepared from standard solutions. The samples were analyzed by UV-spectroscopy using a microplate reader (SpectraMax i3, Molecular Devices, USA) at the maximum absorbance for each drug (227 nm for PA, 254 nm for EP and DOX and 268 nm for GEM). All the experiments were performed in triplicate.
In an embodiment, impregnation efficiency of anti-cancer drugs in the biodegradable ureteral stents (BUS) was determined as a function of mass (μg) of anti-cancer drugs per mass (mg) of the polymer. In the DrugEtOH conditions, the amount of anti-cancer drug impregnated in the stents is higher, as it would be expected due to the co-solvent effect of ethanol in the enhancement of drug the solubility in CO2. The amount of impregnated paclitaxel in pure scCO2 (PAbio) was 0.046 μg mg-1, whereas those in PAEtOH condition was […] (0.067 μg mg-1). A similar percentage was reported by Yoda et al. (Yoda et al., 2011) in which the authors report the impregnation of paclitaxel in an amorphous poly(DL-lactic acid) (PDLLA) matrix. The amount of paclitaxel impregnated by Yoda et al. in PDLLA was 2-3 times higher compared with the alginate/gelatin matrix obtained in this work. This can be justified by the higher affinity of the drug-CO2 solution in the hydrophobic PDLLA matrix (Kazarian, 2000). Furthermore, PDLLA may also have greater swelling in the presence of scCO2 than the alginate/gelatin polymer blend (Cooper, 2000; Yoda et al., 2011). […] In the case of the Biosoft® duo, Porges, Coloplast stents the amount of drug impregnated is 6-times lower compared with BUS impregnated with paclitaxel under the same conditions. The lower amount of drug impregnated can be related with lower swelling ability of the polymeric matrix of the commercial stent in scCO2 and/or by lower affinity of the drugs with composition material of the Biosoft® duo, Porges, Coloplast stent.

T24 cancer cells = conditions: cited from earlier work
[4] = T-24, 4 h exposure then 72 h in drug-free medium
[5] = 4 h exposure then 72 h in drug-free medium
[6] = DrugCom: commercial non-degradable stent with co-solvent
[7] = DrugETOH: BUS + 10% ethanol co-solvent
[8] = Drugbio: BUS without co-solvent

COc1cccc2c1C(=O)c1c(O)c3c(c(O)c1C2=O)C[C@@](O)(C(=O)CO)C[C@@H]3O[C@H]1C[C@H](N)[C@H](O)[C@H](C)O1 [Doxorubicin, doxorubicin]
IC50 [1, 4]: 187 ± 5.18 µg/mL (≈ 344 µM)
IC50 ([1]; T-24, 72 h exposure): 29.3 ± 10 µg/mL (≈ 53.9 µM)
IC50 [2, 5]: 2150 ± 58.2 µg/mL (≈ 3950 µM)
IC50 ([2]; 72 h exposure): 647 ± 21.4 µg/mL (≈ 1190 µM)
Quantity of drug impregnated by scCO2 [3, 6]: 0.208 μgdrug/mgpolymer
Quantity of drug impregnated by scCO2 [3, 7]: 3.748 μgdrug/mgpolymer
increase in the impregnation yield when ethanol was used as a co-solvent [3]: 12%
Quantity of drug impregnated by scCO2 [3, 8]: 3.297 μgdrug/mgpolymer
IC50 (T24 cancer cells; doxorubicin, T24 cancer cells, Lu et al., 2015a): 0.0116 µg/mL (≈ 0.0213 µM)
IC50 (T24 cancer cells; doxorubicin, T24 cancer cells, Yu et al., 2015): 4 µg/mL (≈ 7.36 µM)

COc1cccc2c1C(=O)c1c(O)c3c(c(O)c1C2=O)C[C@@](O)(C(=O)CO)C[C@@H]3O[C@H]1C[C@H](N)[C@@H](O)[C@H](C)O1 [Epirubicin, epirubicin]
IC50 [1, 4]: 67 ± 2.34 µg/mL (≈ 123 µM)
IC50 ([1]; T-24, 72 h exposure): 15.7 ± 1.02 µg/mL (≈ 29 µM)
IC50 [2, 5]: 2050 ± 33.2 µg/mL (≈ 3770 µM)
IC50 ([2]; 72 h exposure): 139 ± 13.6 µg/mL (≈ 256 µM)
Quantity of drug impregnated by scCO2 [3, 6]: 0.118 μgdrug/mgpolymer
Quantity of drug impregnated by scCO2 [3, 7]: 1.779 μgdrug/mgpolymer
increase in the impregnation yield when ethanol was used as a co-solvent [3]: 15%
Quantity of drug impregnated by scCO2 [3, 8]: 1.498 μgdrug/mgpolymer

Nc1ccn([C@@H]2O[C@H](CO)[C@@H](O)C2(F)F)c(=O)n1 [Gemcitabine, gemcitabine]
IC50 [1, 4]: 99 ± 1.29 µg/mL (≈ 376 µM)
IC50 ([1]; T-24, 72 h exposure): 0.89 ± 0.27 µg/mL (≈ 3.38 µM)
IC50 [2, 5]: 413.6 ± 2.68 µg/mL (≈ 1570 µM)
IC50 ([2]; 72 h exposure): 237 ± 16.7 µg/mL (≈ 901 µM)
Quantity of drug impregnated by scCO2 [3, 6]: 2.312 μgdrug/mgpolymer
Quantity of drug impregnated by scCO2 [3, 7]: 19.572 μgdrug/mgpolymer
Quantity of drug impregnated by scCO2 ([3]; DrugETOH: BUS + 10% ethanol co-solvent, listed as gemcitabine): 19.57 μgdrug/mgpolymer
increase in the impregnation yield when ethanol was used as a co-solvent [3]: 8%
Quantity of drug impregnated by scCO2 [3, 8]: 18.183 μgdrug/mgpolymer
% loaded [3]: 2%

CC(=O)O[C@H]1C(=O)[C@@]2(C)[C@H]([C@H](OC(=O)c3ccccc3)[C@]3(O)C[C@H](OC(=O)[C@H](O)[C@@H](NC(=O)c4ccccc4)c4ccccc4)C(C)=C1C3(C)C)[C@]1(OC(C)=O)CO[C@@H]1C[C@@H]2O [Paclitaxel, paclitaxel]
IC50 [1, 4]: 0.282 µg/mL (≈ 0.33 µM)
IC50 ([1]; T-24, 72 h exposure): 0.0073 µg/mL (≈ 0.00855 µM)
IC50 [2, 5]: 0.85 µg/mL (≈ 0.995 µM)
IC50 ([2]; 72 h exposure): 0.502 µg/mL (≈ 0.587 µM)
Quantity of drug impregnated by scCO2 [3, 6]: 0.014 μgdrug/mgpolymer
Quantity of drug impregnated by scCO2 [3, 7]: 0.067 μgdrug/mgpolymer
Quantity of drug impregnated by scCO2 [3, 8]: 0.046 μgdrug/mgpolymer
% loaded [3]: 0.01%
IC50 (T24 cancer cells; paclitaxel, Hadaschik et al., 2008): 0.00285 µg/mL (≈ 0.00334 µM)

Source: patent US11998665B2, “Biodegradable ureteral stents, methods and uses thereof” (ASSOCIATION FOR THE ADVANCEMENT OF TISSUE ENGINEERING AND …, priority 2016, dated 2024)
